In general, pIC50 refers to −log10 of the IC50, conventionally taken in molar units. Lower therefore signals a high IC50.

The values that follow come from publication PMC4774911, “Biochemical Screening of Five Protein Kinases from Plasmodium falciparum against 14,000 Cell-Active Compounds” (PLoS ONE, 2016).

pIC50, pKd: −log10 of the molar value. “And” between values parts separate entries of the source, which are not always exact repeats. Identical values can stand only once.

For one test, the target named is MAP4K5 (Homo sapiens, UniProt Q9Y4K4). Briefly: biochemical. The arrangement: species or system K562 (extract); replicate k of n = 2 (each experiment ID is one independent experiment; two experiment IDs per compound). As to conditions: read-out: KDapp.
Sequence of MAP4K5 (Q9Y4K4 whole entry): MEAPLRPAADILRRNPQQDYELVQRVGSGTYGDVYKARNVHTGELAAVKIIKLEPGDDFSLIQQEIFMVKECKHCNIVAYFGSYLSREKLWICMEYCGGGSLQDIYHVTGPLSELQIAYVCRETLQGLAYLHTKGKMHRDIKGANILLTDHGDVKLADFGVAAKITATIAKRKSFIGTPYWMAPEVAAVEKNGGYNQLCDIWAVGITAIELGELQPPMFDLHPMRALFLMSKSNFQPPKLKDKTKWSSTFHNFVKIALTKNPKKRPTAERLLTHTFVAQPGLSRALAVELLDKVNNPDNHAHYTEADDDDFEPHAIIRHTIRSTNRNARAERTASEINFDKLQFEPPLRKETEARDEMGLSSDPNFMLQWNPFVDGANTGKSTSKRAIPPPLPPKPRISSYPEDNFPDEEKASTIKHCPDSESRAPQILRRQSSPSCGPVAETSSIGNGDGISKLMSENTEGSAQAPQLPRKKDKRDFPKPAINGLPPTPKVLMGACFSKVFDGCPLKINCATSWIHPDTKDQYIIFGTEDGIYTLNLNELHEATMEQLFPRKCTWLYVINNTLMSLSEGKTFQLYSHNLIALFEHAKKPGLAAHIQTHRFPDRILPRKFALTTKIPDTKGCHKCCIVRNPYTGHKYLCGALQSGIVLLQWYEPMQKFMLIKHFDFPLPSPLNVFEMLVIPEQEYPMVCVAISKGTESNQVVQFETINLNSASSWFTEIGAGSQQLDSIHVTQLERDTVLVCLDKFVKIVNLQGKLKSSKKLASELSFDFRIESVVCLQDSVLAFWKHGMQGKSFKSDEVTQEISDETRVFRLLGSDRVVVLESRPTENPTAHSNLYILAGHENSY
A further test has as its system LOC100128443. As to conditions: human.
For the next test, the target named is AURKB (Homo sapiens, UniProt Q96GD4). As to the kind of experiment: biochemical.
Sequence of AURKB (Q96GD4 whole entry): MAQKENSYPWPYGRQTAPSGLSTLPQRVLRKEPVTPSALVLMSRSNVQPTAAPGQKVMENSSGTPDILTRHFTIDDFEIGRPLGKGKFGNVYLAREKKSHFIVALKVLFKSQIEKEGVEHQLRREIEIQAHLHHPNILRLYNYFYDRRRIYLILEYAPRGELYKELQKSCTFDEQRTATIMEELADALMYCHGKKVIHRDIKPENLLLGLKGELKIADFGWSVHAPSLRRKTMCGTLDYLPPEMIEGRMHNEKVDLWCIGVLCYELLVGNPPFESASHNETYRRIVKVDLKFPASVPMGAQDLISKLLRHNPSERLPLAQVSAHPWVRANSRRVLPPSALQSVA
The next test deals with CSNK1E (Homo sapiens, UniProt P49674). As to the kind of experiment: biochemical.
Sequence of CSNK1E (P49674 whole entry): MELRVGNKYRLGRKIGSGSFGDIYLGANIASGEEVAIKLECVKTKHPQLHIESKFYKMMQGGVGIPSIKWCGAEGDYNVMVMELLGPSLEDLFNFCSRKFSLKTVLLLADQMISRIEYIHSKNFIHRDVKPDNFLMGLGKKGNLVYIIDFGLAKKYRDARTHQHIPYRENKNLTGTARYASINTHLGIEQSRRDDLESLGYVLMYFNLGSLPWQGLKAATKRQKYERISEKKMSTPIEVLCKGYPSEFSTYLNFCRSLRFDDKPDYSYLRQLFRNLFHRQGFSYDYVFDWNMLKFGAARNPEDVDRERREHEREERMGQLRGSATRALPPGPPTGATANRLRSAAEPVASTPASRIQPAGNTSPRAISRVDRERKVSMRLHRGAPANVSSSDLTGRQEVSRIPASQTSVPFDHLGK
The next test addresses CSNK2A2 (Homo sapiens, UniProt P19784). As to the kind of experiment: biochemical.
Another test deals with DDR1 (Homo sapiens, UniProt Q08345). Briefly: biochemical.
Sequence of DDR1 (Q08345 whole entry): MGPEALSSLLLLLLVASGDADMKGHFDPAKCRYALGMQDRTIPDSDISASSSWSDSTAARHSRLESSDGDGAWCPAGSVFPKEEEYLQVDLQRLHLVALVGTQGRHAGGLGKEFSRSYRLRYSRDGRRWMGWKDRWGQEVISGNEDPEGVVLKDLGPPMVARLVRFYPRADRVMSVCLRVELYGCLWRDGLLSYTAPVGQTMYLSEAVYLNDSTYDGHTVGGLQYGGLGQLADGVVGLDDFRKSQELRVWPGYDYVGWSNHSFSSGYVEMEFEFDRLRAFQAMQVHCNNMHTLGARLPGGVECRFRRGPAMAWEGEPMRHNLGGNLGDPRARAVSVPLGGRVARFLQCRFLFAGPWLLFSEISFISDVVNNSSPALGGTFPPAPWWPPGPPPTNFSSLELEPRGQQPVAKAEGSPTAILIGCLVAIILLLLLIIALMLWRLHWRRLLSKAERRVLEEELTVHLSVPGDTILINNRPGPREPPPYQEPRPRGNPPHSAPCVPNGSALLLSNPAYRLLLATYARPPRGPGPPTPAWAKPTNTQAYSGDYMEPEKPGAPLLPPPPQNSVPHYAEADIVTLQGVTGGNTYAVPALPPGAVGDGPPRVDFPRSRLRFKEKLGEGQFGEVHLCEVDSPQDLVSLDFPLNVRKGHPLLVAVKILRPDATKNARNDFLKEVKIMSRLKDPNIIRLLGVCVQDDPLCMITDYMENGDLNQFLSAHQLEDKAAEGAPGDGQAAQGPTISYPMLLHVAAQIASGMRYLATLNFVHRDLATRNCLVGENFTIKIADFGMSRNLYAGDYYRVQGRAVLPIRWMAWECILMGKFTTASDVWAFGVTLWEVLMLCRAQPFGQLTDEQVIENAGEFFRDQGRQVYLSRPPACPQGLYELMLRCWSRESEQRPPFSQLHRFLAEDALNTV
The target in another test is T1, LATS1 (Homo sapiens, UniProt O95835).
T1 sequence (O95835 1-1130): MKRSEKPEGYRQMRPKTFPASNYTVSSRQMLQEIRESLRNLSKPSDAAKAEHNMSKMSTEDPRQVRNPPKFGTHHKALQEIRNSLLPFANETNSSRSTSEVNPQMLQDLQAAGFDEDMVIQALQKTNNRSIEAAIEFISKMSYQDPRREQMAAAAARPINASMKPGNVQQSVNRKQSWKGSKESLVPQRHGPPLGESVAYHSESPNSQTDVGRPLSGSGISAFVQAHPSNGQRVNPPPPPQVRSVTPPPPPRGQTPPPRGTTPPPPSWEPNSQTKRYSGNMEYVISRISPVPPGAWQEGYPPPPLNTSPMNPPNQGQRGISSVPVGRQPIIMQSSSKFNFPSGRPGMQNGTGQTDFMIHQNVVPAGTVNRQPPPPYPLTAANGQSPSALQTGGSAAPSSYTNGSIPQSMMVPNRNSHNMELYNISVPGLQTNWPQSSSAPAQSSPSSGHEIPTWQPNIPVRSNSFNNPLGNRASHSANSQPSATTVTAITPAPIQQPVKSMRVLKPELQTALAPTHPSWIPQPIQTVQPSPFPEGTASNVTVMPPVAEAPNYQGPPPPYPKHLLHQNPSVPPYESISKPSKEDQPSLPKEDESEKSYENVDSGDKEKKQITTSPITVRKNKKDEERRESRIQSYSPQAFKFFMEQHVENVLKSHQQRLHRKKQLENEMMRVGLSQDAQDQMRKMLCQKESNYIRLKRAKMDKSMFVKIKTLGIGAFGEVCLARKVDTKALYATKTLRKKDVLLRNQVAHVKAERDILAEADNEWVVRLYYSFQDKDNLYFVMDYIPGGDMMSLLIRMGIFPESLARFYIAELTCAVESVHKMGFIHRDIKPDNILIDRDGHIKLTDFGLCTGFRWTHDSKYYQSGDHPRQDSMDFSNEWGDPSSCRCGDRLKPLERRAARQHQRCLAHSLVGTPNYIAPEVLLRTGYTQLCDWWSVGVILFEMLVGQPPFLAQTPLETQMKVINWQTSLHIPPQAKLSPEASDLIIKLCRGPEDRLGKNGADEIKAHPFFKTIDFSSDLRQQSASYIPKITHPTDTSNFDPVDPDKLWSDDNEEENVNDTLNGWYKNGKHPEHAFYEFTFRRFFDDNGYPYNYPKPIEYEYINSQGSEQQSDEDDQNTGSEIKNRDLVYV
Briefly: biochemical.

For another test, the target named is TYK2 (Homo sapiens, UniProt P29597). As to the kind of experiment: biochemical.
Sequence of TYK2 (P29597 whole entry): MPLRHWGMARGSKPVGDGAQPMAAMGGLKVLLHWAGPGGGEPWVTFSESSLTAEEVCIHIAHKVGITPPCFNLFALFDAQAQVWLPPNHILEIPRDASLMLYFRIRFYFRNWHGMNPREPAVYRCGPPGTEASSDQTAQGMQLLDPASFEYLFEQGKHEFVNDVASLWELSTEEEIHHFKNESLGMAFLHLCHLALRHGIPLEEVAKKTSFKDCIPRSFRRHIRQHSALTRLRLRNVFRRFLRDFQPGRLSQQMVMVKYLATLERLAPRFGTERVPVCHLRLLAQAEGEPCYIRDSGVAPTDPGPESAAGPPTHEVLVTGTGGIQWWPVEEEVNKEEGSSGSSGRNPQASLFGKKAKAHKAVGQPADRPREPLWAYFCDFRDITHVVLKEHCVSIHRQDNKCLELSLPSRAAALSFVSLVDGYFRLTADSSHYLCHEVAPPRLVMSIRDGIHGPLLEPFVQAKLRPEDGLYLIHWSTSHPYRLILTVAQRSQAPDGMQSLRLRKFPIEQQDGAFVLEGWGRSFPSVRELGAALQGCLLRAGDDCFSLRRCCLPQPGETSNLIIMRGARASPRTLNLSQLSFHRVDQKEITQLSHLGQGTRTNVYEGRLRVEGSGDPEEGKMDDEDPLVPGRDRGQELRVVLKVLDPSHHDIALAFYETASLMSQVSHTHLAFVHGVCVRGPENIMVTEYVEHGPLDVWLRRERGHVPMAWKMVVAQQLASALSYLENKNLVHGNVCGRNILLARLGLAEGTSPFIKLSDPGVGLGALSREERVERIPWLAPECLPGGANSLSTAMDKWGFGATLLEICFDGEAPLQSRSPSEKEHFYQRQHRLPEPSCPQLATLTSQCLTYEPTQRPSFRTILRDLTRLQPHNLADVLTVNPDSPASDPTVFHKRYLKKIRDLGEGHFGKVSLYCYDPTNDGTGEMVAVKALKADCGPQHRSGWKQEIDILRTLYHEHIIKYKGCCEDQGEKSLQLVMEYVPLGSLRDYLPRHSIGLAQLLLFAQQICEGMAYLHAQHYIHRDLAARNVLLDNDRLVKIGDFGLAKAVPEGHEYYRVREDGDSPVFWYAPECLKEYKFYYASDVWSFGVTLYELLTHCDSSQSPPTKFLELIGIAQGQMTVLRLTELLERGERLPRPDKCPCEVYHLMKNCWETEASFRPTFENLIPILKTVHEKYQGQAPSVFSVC
The next test has as its target T2, PRKD3 (Homo sapiens, UniProt O94806).
T2 sequence (O94806 1-890): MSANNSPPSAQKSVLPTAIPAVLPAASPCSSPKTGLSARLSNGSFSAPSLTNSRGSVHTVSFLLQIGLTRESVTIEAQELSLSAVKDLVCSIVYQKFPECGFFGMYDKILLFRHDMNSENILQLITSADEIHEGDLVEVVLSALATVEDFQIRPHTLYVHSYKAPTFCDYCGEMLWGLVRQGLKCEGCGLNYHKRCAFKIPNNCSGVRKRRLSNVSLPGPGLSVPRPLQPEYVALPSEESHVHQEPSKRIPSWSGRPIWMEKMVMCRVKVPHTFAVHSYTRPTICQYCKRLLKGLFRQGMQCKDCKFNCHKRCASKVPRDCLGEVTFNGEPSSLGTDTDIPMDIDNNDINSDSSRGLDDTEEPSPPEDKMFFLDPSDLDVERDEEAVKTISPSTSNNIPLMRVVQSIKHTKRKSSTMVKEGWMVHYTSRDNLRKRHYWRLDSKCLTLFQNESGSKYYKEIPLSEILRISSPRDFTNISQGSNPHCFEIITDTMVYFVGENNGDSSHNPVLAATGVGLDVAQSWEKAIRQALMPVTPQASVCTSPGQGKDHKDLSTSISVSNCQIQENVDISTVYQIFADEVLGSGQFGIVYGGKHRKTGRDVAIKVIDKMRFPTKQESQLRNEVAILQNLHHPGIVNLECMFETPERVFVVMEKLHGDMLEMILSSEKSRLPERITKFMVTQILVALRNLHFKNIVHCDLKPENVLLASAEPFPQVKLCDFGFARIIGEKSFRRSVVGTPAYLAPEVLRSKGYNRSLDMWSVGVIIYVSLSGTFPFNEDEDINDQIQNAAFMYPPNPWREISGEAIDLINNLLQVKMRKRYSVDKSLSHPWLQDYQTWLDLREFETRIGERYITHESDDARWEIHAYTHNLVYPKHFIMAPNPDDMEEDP
As to the kind of experiment: biochemical. Also noted: endogenous in cells; host or cells: K562 cell extract; species or system K562 (extract); replicate k of n = 2 (each experiment ID is one independent experiment; two experiment IDs per compound). The conditions noted are these: read-out: KDapp.

Sequence of CSNK2A2 (P19784 whole entry): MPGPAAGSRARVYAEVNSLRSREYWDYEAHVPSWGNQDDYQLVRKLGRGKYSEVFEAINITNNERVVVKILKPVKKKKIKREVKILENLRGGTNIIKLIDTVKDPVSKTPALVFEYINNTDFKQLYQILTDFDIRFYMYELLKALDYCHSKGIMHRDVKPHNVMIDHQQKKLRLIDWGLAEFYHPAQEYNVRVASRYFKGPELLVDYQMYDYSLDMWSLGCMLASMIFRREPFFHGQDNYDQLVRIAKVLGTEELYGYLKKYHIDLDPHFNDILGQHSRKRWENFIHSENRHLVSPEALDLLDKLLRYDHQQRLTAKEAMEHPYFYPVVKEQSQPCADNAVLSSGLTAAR

For the molecule `CN1CCN(c2ccc(Nc3ncc(C#N)c(Nc4ccccc4C(N)=O)n3)cc2)CC1.Cl` [TCMDC-134116], the pKd at MAP4K5 was 6.73 and 6.72; at PRKD3, 6.78. Besides, the negative-log IC50 (pIC50) with LOC100128443 was 6.48; against AURKB, 7.40 and 7.19; against CSNK1E it was 5.80 and 5.39; against CSNK2A2, not below 7.49; against DDR1, 6.22 and 6.31; against LATS1, 6.68. At TYK2, the pIC50 is 7.00 and 7.04.

`Cl.NCC1(c2nc(-c3ccc(Cl)c(O)c3)c(-c3ccncc3)[nH]2)CCCCC1` [TCMDC-141154]: the pKd at MAP4K5 is 5.48; on PRKD3, 5.41. Also, the negative logarithm of the IC50 (pIC50) was less than 4.70 in the test with LOC100128443; less than 4.70 at AURKB; 6.48 at CSNK1E; less than 4.70 on CSNK2A2; 5.74 at DDR1; 5.96 against LATS1. Moreover, the pIC50 against TYK2 was less than 4.70.

For `CN(C)CC(O)COc1ccc(Nc2ncc([N+](=O)[O-])c(Nc3ccccc3O)n2)cc1.O=C(O)C(F)(F)F` (stereo not drawn) [TCMDC-141399], the pKd on MAP4K5 is 5.55; on PRKD3 it was 5.39 and 5.47. In addition, the pIC50 with LOC100128443 is less than 4.70; against AURKB it was 5.38; at CSNK1E, less than 4.70; against CSNK2A2 it was 7.25 and 7.35; against DDR1 it was 4.96; against LATS1, less than 4.70. The pIC50 against TYK2 was 5.72.
